Molecules are shown by their SMILES.

The target in data set [1] is T1, native human 20 S core proteasome (Homo sapiens, UniProt P25787+P25789).
T1 construct: purified from erythrocytes; purchased Enzo Life Sciences, Inc. (Farmingdale, N.Y.); host or cells: human erythrocytes
Briefly: AFM imaging of gate conformers of 20 S proteasome. The protocol: The single molecule imaging of the 20 S proteasome was carried out as previously described, with a scanner E of the Multimode Nanoscope IIIa (Bruker Inc) (Gaczynska and Osmulski (2009) Atomic Force Microscopy as a Tool to Study the Proteasome Assemblies; Osmulski et al. (2009) Structure 17(8): 1137-1147. Available from http://www.scopus.com/inward/record.url?eid=2-s2.0-68149164657&partnerID=40&md5=dc5e413998472b20d822db9458de1955). In short, the proteasomes were deposited and electrostatically attached to a muscovite mica substrate, covered with imaging buffer (5 mM Tris/HCl, pH 7) and scanned in tapping mode in fluid using cantilevers with the spring constant of 0.35 N/m from the SNL (Sharp Nitride Lever) probes (Bruker Inc.) tuned to 9-10 kHz. Gentle scanning conditions with the amplitude setpoint in the range of 1.5-2.0V, drive voltage of 300-500 mV and 3.05 Hz scanning rate were used. Scans of 1 μm^2 fields (512×512 pixels) contained height-mode images of several dozens of top-view (“standing”) 20 S proteasome molecules. The gate status was deduced from a profile of raw height values of pixels measured by a probe scanning across the single proteasome particles. The proteasome a face that included the gate was completely rendered by a six-pixel (11-12 nm) scan-line. If the α face scan-line presented a central dip (a local minimum), the particle was classified as containing the open gate. If a plot of height values presented a concave function without a local minimum, the particle was classified as an intermediate conformer. If the function was convex, the particle was classified as containing the closed gate. The “events” of gate opening/closing were analyzed for scans of distinct particles as well as multiple scans of the same particles.
Next, AFM imaging of the native human 20 S core proteasome treated with 10 μM compound 3 was performed to get insight into the putative effects of the compound on the conformation of the α face in the single molecule fashion. In the in-liquid tapping mode AFM method, the outer shape of the α face is monitored by the ultra-sharp probe interacting […] with the protein molecule mostly by van der Waals forces (Gaczynska and Osmulski (2008) Methods Cell Biol. 90: 39-60). […] Treatment with 10 μM of rapamycin shifted the conformational equilibrium of the 20 S core from about 75% to about 50% of closed-gate molecules (Osmulski and Gaczynska (2013) Molecular pharmacology 84: 104-113). An apparent similar shift was induced by compound 3, when the partition of closed conformers dropped from 73±1% (n=4 experiments, 90 events of gate opening/closing) to 45±11% (n=6 experiments, 218 events). Moreover, upon additional refined analysis of “not closed” conformers, it was possible to distinguish the presumably open-gate forms from intermediate forms.
The putative binding site of compound 3 in the α ring pocket, identified by molecular modeling (FIG. 2) and biochemical data (FIG. 4), led to the examination of whether the inhibitor-induced conformational changes in a face gate dynamics. For this purpose, imaging of native 20 S proteasomes was employed using a previously established method of atomic force microscopy (AFM). In this method, topography of the α face of buffer-submerged proteasomes that stand on their opposite a face is rendered in real time by the ultra-sharp probe. A tip of the probe interacts with the molecules mostly by van der Waals forces (Gaczynska and Osmulski (2011) Methods Mol. Biol. 736: 117-32). The distribution of conformation types of a face is routinely accessed with sequential scans of fields of multiply randomly distributed proteasomes. Alternatively, consecutive single scan lines representing the gate status of individual particles are collected. The particles are classified as closed-gate if their a face is smooth and regularly concave (FIG. 5). […]

Data set [2] can be described thus: Pilot toxicity study in mice.
Description: Six injections were performed on Mondays, Wednesdays, and Fridays for two weeks, and the weight and overall condition of the mice were monitored.
Setting [3] is: 10 and 30 mg/kg intravenously, six injections in two weeks.

`COc1cc(CCCOC(=O)[C@@H]2CCCCN2C(=O)OCc2ccccc2)cc(OC)c1OC` [Compound 3, 1-benzyl 2-(3-(3,4,5-trimethoxyphenyl)propyl) (S)-piperidine-1,2-dicarboxylate]: in data set [1] (100 nM), the “abundance of gate conformers” value is “increased the abundance of closed-gate conformers and rendered the open-gate forms nearly undetectable”. In data set [1] (1 μM), the “contribution of open-gate proteasomes” value is recorded as “only about a half of that observed in the control particles”. In addition, the “particles in closed-gate conformation” value in data set [1] (10 μM) is “less than a half of the particles were in the closed-gate conformation”. The “contribution of open-gate and intermediate forms” value in data set [1] (10 μM, compared to control) is on record as “increased about twice”. Besides, in data set [1] (10 μM, n=6 experiments, 218 events, control 73±1%), the “partition of closed conformers” value turned out to be 45±11%. Besides, in data set [1] (10 μM, versus control), the “number of intermediate forms” value is “increased significantly” and the “partition of open forms” value is recorded as “remained remarkably steady”. In data set [2] (setting [3]), the “animals' behavior” value is listed as “No differences in the animals' behavior were noted” and the “body weight versus control mice” value is “did not differ significantly”. Moreover, the toxicity for mice entry in data set [2] (highest tested dose 30 mg/kg) is “non-toxic for mice up to a highest tested dose of 30 mg/kg”.

For the origin of these results see patent publication US11345659B2, “Pipecolic esters for inhibition of the proteasome” (THE BOARD OF REGENTS OF THE UNIVERSY OF TEXAS SYSTEM, priority 2018, dated 2022).
